Laboratory results from US20090215895A1, “Therapeutic and carrier molecules” (PEPLIN BIOLIPIDS PTY LTD, priority 2004, published 2009).
“Also recorded” adds a separate entry of the source.

How the values were obtained:
PKCβII = target: T1, PKCβII (Homo sapiens, UniProt P05771); assay: PMA-stimulated PKC translocation to the particulate fraction in HUVEC and other cell-types; assay type: cell-based
T1 construct: endogenous in cells; host or cells: HUVEC (and unnamed other cell-types)
Description: (§1) MP5 had minimal effects (<15%) on PKCε translocation and no effects on the translocation of the other PKC isozymes in Jurkat cells.
Mesangial cells express PKCα, βI, ε, δ and ζ (Koya et al, 1997 supra, Kikkawa et al, 1994 supra), and βII at lower levels (Koya et al, 1997 supra). To examine the effect of MP5 on the ability of other PKC isozymes in mesangial cells to translocate to the particulate fraction, the cells were pre-treated with MP5 before being stimulated with PMA (1-100 nM). This agent stimulated the translocation of all the classical and novel isozymes. […] The studies were extended to other isozymes. For PKCγ (expressed mainly by neuronal cells), the effect of MP5 are tested using PMA-stimulated PC12 rat pheochromocytoma cells. To assess the effect of MP5 on the activation of atypical PKC isozymes such as PKCζ NIH3T3 cells were pre-treated with MP5 before being stimulated with tumour necrosis factor ? (1000 U/ml) which stimulates PKCζ activity in these cells (Lallena et al, 1999 supra). The isozyme were immunoprecipitated (antibody from Santa Cruz) and kinase activity was determined using a PKCε pseudosubstrate peptide or myelin basic protein as a substrate (Suzuma et al, 2002 supra).

[1] = Formalin-induced pain test (hind paw licking time); assay type: in vivo
Description: Investigations of the effects of PT2 on pain induced by phenylquinolic acid (PQ writhing) and formalin have been made. In both the PQ writhing test (FIG. 3) and the formalin algesia test (FIG. 4), PT2 administered by intraperitoneal inoculation reduced pain and compared favourably with pain reduction by aspirin (oral, 100 mg/kg). In these tests, the EPUFA was administered 30 min before the pain stimulus and effects recorded over the following 20 min.
Investigations of PT2 in the formalin-induced analgesia model looking specifically at the biphasic response have also been undertaken and are shown in Table 1. It is well documented that in this model, aspirin suppresses only pain related to the inflammatory process (15-20 mins post-administration of formalin), while morphine suppresses pain in both phases of the response (0-5 min and 15-20 min).
Compounds were administered intraperationedly (ip) 30 min prior to the administration of formalin (0.02 ml, 1% solution) via subplantar injection into the right hind paw. Reduction of the induced hind paw licking time recorded during the following 0-5 min period (Phase I response) or 15-20 min period (Phase II response) was determined. The data in Table 1 are the mean responses of 5 animals in each group.

[2] = Tissue distribution after oral administration; assay type: in vivo
PKCβI [3] = target: T2, PKCβI (Homo sapiens, UniProt P05771); assay: PMA-stimulated PKC translocation to the particulate fraction in HUVEC and other cell-types; assay type: cell-based
T2 construct: endogenous in cells; host or cells: HUVEC (and unnamed other cell-types)
T2 sequence (P05771 whole entry): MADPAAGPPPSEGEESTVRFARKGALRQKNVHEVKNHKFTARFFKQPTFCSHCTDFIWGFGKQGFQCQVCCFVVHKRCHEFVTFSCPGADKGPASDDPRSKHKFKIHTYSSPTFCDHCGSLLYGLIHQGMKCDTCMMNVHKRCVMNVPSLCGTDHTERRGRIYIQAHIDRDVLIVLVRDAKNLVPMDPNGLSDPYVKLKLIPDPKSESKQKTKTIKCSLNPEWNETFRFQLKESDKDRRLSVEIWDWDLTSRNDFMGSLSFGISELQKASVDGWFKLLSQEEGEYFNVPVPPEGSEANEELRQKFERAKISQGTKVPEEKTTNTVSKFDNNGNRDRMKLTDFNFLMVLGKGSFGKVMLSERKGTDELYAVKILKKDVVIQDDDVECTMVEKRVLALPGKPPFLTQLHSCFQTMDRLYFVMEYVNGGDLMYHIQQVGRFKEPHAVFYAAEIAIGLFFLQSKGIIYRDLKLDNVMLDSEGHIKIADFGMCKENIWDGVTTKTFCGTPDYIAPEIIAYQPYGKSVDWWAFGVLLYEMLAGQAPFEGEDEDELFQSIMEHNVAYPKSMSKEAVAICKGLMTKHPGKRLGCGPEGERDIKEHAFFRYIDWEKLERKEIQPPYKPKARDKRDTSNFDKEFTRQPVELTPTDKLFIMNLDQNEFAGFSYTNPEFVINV

PKCβI [4] = assay: PKCβ1 translocation in glucose-stimulated mesangial cells (Western blot); assay type: cell-based; details: 1 hr pre-treatment, 25 mM glucose 5 days
Description: (§2) FIG. 9 is a diagrammatic representation showing the suppression of PKCβ1 translocation in glucose-stimulated mesangial cells (a) and in the glomeruli of a diabetic rat (b). Mesangial cells were pre-treated with MP5 or vehicle (ethanol) for 1 hr before being incubated with 25 mM glucose for 5 days. Male rats were rendered diabetic with streptozotocin and MP5 or vehicle (ethanol) was administered for 7 days after confirmation of diabetes. The cells and glomeruli were sonicated and particulate fraction-associated PKCβ1 was determined by Western blot analysis. High glucose and diabetes increased PKCβ1 in the particulate fraction.
Mesangial cells are prepared as previously described (Couper et al, 1994 supra).
Four groups of cells were set up: 5.5 mM glucose+ethanol (0.1% w/v or v/v), 5.5 mM glucose+MP5 (20 μM which is effective in the studies), 25 mM glucose+ethanol and 25 mM glucose+MP5. […] Cells were pre-incubated (30 min-24 h) with MP5 before being challenged with glucose for 4 days. […] Cells are then be washed, sonicated and the amount of each PKC isozyme in the particulate fraction determined by Western blot analysis. The soluble fractions were kept for estimation of soluble PKC (non-particulate fraction-associated). […] The cells remained viable throughout the period of study as judged by the trypan blue exclusion test. […]

HUVEC = assay: Agonist-enhanced neutrophil adherence to HUVEC; assay type: cell-based, human; details: 20 μmol/l, 1 hr pre-treatment, TNF 4 hr
Description: FIG. 11 is a representation showing effect of β-oxa; β-thia and natural PUFA on TNF-enhanced neutrophil adherence to HUVEC. HUVEC were pre-treated with the fatty acids (20 μmol/l) for 60 min at 37° C. before being stimulated with TNF (125 U/200 μl medium) for 4 hr at 37° C. The cells were then co-incubated with neutrophils (5×10^5 cells/well) at 37° C. for 30 min and the degree of neutrophil adherence quantitated. The results are expressed as % of control and represent the mean±SEM of three separate experiments each performed in triplicate. * p<0.05, ***p<0.001, for significant differences between pre-treatment with fatty acid and control (one-way analysis of variance followed by the Dunnett test for multiple comparisons).
Adhesion of neutrophils, prepared by the rapid-single-step method (Ferrante et al, J. Immun. Methods 36:109-117, 1980), to HUVEC isolated from umbilical cords was carried out essentially as described (Huang et al, 1997 supra).
The magnitude of the suppressive effect of -MP3 was dependent on-pre-treatment time and concentration with significant effects observed with a pre-treatment time of 1 hr and a concentration of ≧5 μmol/l.

PKCβI [5] = target: T3, PKCβI (Rattus norvegicus, UniProt P68403); assay: PKCβ1 translocation in the glomeruli of streptozotocin-diabetic rats; assay type: in vivo; details: administered for 7 days after confirmation of diabetes
T3 construct: from tissue; host or cells: glomeruli of streptozotocin-diabetic male rats
T3 sequence (P68403 whole entry): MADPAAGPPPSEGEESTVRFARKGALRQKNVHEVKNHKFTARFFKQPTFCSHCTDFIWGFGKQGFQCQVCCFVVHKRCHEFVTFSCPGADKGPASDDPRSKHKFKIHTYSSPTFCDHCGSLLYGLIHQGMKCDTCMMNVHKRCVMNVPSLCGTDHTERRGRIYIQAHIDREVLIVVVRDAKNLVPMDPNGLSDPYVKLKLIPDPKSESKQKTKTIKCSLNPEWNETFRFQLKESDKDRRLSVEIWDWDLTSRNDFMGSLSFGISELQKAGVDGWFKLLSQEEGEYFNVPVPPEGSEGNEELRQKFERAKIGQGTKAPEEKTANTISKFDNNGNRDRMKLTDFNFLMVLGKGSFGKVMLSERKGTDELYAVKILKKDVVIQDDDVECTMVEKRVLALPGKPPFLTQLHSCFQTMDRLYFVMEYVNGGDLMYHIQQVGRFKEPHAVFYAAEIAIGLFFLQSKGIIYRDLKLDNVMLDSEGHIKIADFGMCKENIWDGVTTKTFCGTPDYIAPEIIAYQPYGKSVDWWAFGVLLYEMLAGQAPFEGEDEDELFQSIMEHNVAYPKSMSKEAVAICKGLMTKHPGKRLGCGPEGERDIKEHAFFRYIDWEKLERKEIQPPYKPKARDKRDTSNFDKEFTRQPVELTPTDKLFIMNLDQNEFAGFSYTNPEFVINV
Description: as §2

other PKC isozymes = assay: PKC translocation in Jurkat cells; assay type: cell-based
Description: as §1

PKCε = target: T4, PKCε (Homo sapiens, UniProt Q02156); assay: PKC translocation in Jurkat cells; assay type: cell-based
T4 construct: endogenous in cells; host or cells: Jurkat
T4 sequence (Q02156 whole entry): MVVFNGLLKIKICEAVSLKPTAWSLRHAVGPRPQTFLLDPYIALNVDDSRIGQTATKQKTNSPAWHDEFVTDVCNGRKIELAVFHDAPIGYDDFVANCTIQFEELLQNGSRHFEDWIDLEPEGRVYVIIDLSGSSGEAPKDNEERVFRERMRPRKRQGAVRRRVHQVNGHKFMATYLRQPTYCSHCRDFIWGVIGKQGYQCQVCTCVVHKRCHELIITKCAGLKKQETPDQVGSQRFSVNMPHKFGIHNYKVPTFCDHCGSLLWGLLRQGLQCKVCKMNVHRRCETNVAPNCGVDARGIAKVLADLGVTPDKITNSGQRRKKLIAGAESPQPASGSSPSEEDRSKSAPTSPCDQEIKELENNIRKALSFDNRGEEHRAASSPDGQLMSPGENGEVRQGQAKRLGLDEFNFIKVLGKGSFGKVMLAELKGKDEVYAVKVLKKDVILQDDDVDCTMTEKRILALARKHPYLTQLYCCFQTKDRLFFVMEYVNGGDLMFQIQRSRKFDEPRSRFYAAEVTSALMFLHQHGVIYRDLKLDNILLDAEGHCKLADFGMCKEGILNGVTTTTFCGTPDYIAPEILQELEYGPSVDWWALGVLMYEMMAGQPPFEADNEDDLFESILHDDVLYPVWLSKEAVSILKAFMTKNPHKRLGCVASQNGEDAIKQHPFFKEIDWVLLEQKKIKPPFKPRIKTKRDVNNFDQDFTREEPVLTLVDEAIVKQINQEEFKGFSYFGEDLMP
Description: as §1

[6] = Long term in vivo tolerability of MP5; design: species or system rats; details: up to 100 mg/kg
Description: as §1
The ability of MP5 to inhibit renal TGFβ production and albuminuria in streptozotocin-induced diabetic Sprague-Dawley rats were investigated. MP5 is non toxic to rats given at up to 100 mg/kg chronically as determined by liver and kidney biochemical and electrolyte markers. […] Animals (130-150 g) were placed randomly in one of five groups: control, MP5-treated, diabetic, diabetic+MP5 and diabetic+MP1. Power analysis ([…], β=0.1) (expecting at least a 50% reduction and an SD of 30% of mean) indicate that 7-8 animals/group were needed. The rats were rendered diabetic using streptozotocin (65 mg/kg. I.P) and blood glucose levels were measured 48 hr later to confirm the onset of diabetes (glucose>15 mM). […] Blood glucose was measured every week. […] At the end of the MP5 treatment period, rats were sacrificed and the level of TGFβ mRNA (Kikkawa et al 1994 supra) in the glomeruli were determined by slot blot analysis (Ferrante et al, 1997 supra) and normalized by comparison with the level of GAPDH (glyceraldehyde 3-phosphate dehydrogenase) mRNA in the same sample (Ferrante et al, 1997 supra). The amount of albumin in the urine were measured by using a commercial kit (EXOCELL Inc. Philadelphia, Pa.). […]

[7] = 100 mg/kg ip, 30 min prior to formalin, mean of 5 animals

T1 sequence (P05771 1-673 isoform P05771-2): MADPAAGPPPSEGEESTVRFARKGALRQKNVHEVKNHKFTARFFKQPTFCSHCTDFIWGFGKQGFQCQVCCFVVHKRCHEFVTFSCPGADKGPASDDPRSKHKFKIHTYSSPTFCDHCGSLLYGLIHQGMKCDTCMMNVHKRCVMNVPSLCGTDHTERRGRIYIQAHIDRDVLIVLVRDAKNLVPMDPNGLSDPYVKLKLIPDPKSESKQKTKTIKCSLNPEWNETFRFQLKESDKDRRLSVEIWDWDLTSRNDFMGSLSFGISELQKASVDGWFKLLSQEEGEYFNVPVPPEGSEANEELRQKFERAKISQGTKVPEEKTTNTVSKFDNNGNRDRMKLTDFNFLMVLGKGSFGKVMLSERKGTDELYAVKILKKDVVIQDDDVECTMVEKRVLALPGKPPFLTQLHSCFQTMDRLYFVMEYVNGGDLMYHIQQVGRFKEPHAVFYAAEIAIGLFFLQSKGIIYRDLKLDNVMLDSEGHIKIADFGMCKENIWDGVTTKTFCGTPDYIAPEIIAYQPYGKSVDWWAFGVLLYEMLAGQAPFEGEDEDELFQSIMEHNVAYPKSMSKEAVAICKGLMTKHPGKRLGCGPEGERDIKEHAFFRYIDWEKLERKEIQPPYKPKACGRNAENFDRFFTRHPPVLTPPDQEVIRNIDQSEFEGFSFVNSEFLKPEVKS

PMA-stimulated translocation of PKCβII to the particulate fraction (PKCβII): inhibited PMA-stimulated translocation | PMA-stimulated translocation of PKCβI to the particulate fraction (PKCβI [3]; HUVEC and other cell-types): inhibited PMA-stimulated translocation | Effect on PKCε translocation (PKCε): < 15%
SMILES: CC/C=C\C/C=C\C/C=C\CCCCCCCCOCC(=O)O [MP5, β-oxa-21:3n-3]
% inhibition of pain response, Phase I (0-5 mins) [1, 7]: 34% | % inhibition of pain response, Phase II (15-20 mins) [1, 7]: 37% | Pain reduction in formalin test ([1]; intraperitoneal, 30 min before pain stimulus): much less effective in inhibiting pain | Presence in blood, organs and tissues after oral administration [2]: present in the blood and various organs; also recorded: taken up by tissues, including kidneys, and incorporated into phospholipids | Selectivity between PKCβI and PKCβII (PKCβI [3]; HUVEC, depending on the concentrations used): able to distinguish between PKCβI and PKCβII | Translocation of PKCβI to a particulate fraction, glucose-stimulated mesangial cells (PKCβI [4]): prevent the translocation of PKCβI; also recorded: inhibited this effect | Inhibition of TNF-α-enhanced neutrophil adhesion to HUVEC (HUVEC): inhibited their ability to be stimulated | Translocation of PKCβI to a particulate fraction, glomeruli of diabetic rats (PKCβI [5]): prevent the translocation of PKCβI; also recorded: inhibited this effect | Effect on translocation of the other PKC isozymes (other PKC isozymes): no effects | Liver and kidney function and electrolyte levels ([6]; chronic): no adverse effects on liver and kidney function and electrolyte levels; also recorded: non toxic | Well-being of the animals (coat appearance, activity/mobility) ([6]; up to three months): no visible adverse effects
